Measurements reported in patent publication US20230167122A1, “PESTICIDALLY ACTIVE HETEROCYCLIC DERIVATIVES WITH SULFUR CONTAINING SUBSTITUENTS” (SYNGENTA CROP PROTECTION AG, priority 2020, published 2023).

Experiments:
Assay type in all cases: in vivo
[1] = system: Nilaparvata lugens (Brown Plant Hopper); assay: Example B11: Activity against Nilaparvata lugens (brown plant hopper), larvicide, feeding/contact; conditions: 168 h, application rate of 50 ppm, N3 nymphs on sprayed rice plants, 7 days after the treatment
Experimental: Example B11: Activity Against Nilaparvata lugens (Brown Plant Hopper) Larvicide, Feeding/Contact
Rice plants were treated with the diluted test solutions in a spray chamber. After drying plants were infested with ˜20 N3 nymphs. 7 days after the treatment samples were assessed for mortality and growth regulation.

[2] = system: Nilaparvata lugens (Brown Plant Hopper); assay: Example B12: Activity against Nilaparvata lugens (brown plant hopper), larvicide, systemic into water; conditions: 168 h, application rate of 12.5 ppm, systemic into nutritive solution, rice plants, N3 nymphs, 7 days after infestation
Experimental: Example B12: Activity Against Nilaparvata lugens (Brown Plant Hopper) Larvicide, Systemic into Water
Rice plants cultivated in a nutritive solution were treated with the diluted test solutions into nourishing cultivation system. 1 day after application plants were infested with ˜20 N3 nymphs. 7 days after infestation samples were assessed for mortality and growth regulation.

[3] = system: Spodoptera littoralis (Egyptian Cotton Leaf Worm); assay: Example B9: Activity against Spodoptera littoralis (Egyptian cotton leaf worm), sprayed cotton leaf discs; conditions: foliar, 72 h, application rate of 200 ppm, L1 larvae on cotton leaf discs, 3 days after infestation
Experimental: Example B9: Activity Against Spodoptera littoralis (Egyptian Cotton Leaf Worm)
Cotton leaf discs were placed onto agar in 24-well microtiter plates and sprayed with aqueous test solutions prepared from 10′000 ppm DMSO stock solutions. After drying the leaf discs were infested with five L1 larvae. The samples were assessed for mortality, anti-feeding effect, and growth inhibition in comparison to untreated samples 3 days after infestation. Control of Spodoptera littoralis by a test sample is given when at least one of the categories mortality, anti-feedant effect, and growth inhibition is higher than the untreated sample.

[4] = system: Euschistus heros (Neotropical Brown Stink Bug); assay: Example B3: Activity against Euschistus heros (neotropical brown stink bug), sprayed soybean leaf; conditions: 120 h, application rate of 200 ppm, N-2 nymphs on soybean leaf, 5 days after infestation, read-out: effect in at least one of the two categories (mortality or growth inhibition)
Experimental: Example B3: Activity Against Euschistus heros (Neotropical Brown Stink Bug)
Soybean leaf on agar in 24-well microtiter plates were sprayed with aqueous test solutions prepared from 10′000 ppm DMSO stock solutions. After drying the leaf were infested with N-2 nymphs. The samples were assessed for mortality and growth inhibition in comparison to untreated samples 5 days after infestation.

[5] = system: Plutella xylostella (Diamond Back Moth); assay: Example B5: Activity against Plutella xylostella (diamond back moth), eggs, artificial diet; conditions: 192 h, application rate of 200 ppm, 8 days after infestation, read-out: effect in at least one of the two categories (mortality or growth inhibition)
Experimental: Example B5: Activity Against Plutella xylostella (Diamond Back Moth)
24-well microtiter plates with artificial diet were treated with aqueous test solutions prepared from 10′000 ppm DMSO stock solutions by pipetting. After drying, Plutella eggs were pipetted through a plastic stencil onto a gel blotting paper and the plate was closed with it. The samples were assessed for mortality and growth inhibition in comparison to untreated samples 8 days after infestation.

[6] = system: Tetranychus urticae (Two-Spotted Spider Mite); assay: Example B10: Activity against Tetranychus urticae (two-spotted spider mite), sprayed bean leaf discs; conditions: foliar, 192 h, application rate of 200 ppm, mixed population (mobile stages) on bean leaf discs, 8 days after infestation
Experimental: Example B10: Activity Against Tetranychus urticae (Two-Spotted Spider Mite)
Bean leaf discs on agar in 24-well microtiter plates were sprayed with aqueous test solutions prepared from 10′000 ppm DMSO stock solutions. After drying the leaf discs were infested with a mite population of mixed ages. The samples were assessed for mortality on mixed population (mobile stages) 8 days after infestation.

[7] = system: Myzus persicae (Green Peach Aphid); assay: Example B6: Activity against Myzus persicae (green peach aphid), sprayed sunflower leaf discs; conditions: foliar, 144 h, application rate of 200 ppm, aphid population of mixed ages on sunflower leaf discs, 6 days after infestation
Experimental: Example B6: Activity Against Myzus persicae (Green Peach Aphid)
Sunflower leaf discs were placed on agar in a 24-well microtiter plate and sprayed with aqueous test solutions prepared from 10′000 ppm DMSO stock solutions. After drying, the leaf discs were infested with an aphid population of mixed ages. The samples were assessed for mortality 6 days after infestation.

[8] = system: Bemisia tabaci (Cotton White Fly); assay: Example B1: Activity against Bemisia tabaci (cotton white fly), sprayed cotton leaf discs; conditions: foliar, 144 h, application rate of 200 ppm, adult white flies on cotton leaf discs, 6 days after incubation
Experimental: Example B1: Activity Against Bemisia tabaci (Cotton White Fly)
Cotton leaf discs were placed on agar in 24-well microtiter plates and sprayed with aqueous test solutions prepared from 10′000 ppm DMSO stock solutions. After drying the leaf discs were infested with adult white flies. The samples were checked for mortality 6 days after incubation.

[9] = system: Diabrotica balteata (Corn Root Worm); assay: Example B2: Activity against Diabrotica balteata (corn root worm), sprayed maize sprouts; conditions: 96 h, application rate of 200 ppm, L2 larvae on maize sprouts, 4 days after infestation, read-out: effect in at least one of the two categories (mortality or growth inhibition)
Experimental: Example B2: Activity Against Diabrotica balteata (Corn Root Worm)
Maize sprouts placed onto an agar layer in 24-well microtiter plates were treated with aqueous test solutions prepared from 10′000 ppm DMSO stock solutions by spraying. After drying, the plates were infested with L2 larvae (6 to 10 per well). The samples were assessed for mortality and growth inhibition in comparison to untreated samples 4 days after infestation.

[10] = system: Myzus persicae (Green Peach Aphid); assay: Example B7: Activity against Myzus persicae (green peach aphid), roots of pea seedlings in test solution; conditions: 144 h, test rate of 24 ppm, roots of infested pea seedlings in test solution, 6 days
Experimental: Example B7: Activity Against Myzus persicae (Green Peach Aphid)
Roots of pea seedlings infested with an aphid population of mixed ages were placed directly in the aqueous test solutions prepared from 10′000 DMSO stock solutions. The samples were assessed for mortality 6 days after placing seedlings in test solutions.

[11] = system: Plutella xylostella (Diamond Back Moth); assay: Example B8: Activity against Plutella xylostella (diamond back moth), L2 larvae, artificial diet; conditions: 120 h, application rate of 200 ppm, 5 days after infestation, read-out: effect in at least one of the two categories (mortality or growth inhibition)
Experimental: Example B8: Activity Against Plutella xylostella (Diamond Back Moth)
24-well microtiter plates with artificial diet were treated with aqueous test solutions prepared from 10′000 ppm DMSO stock solutions by pipetting. After drying, the plates were infested with L2 larvae (10 to 15 per well). The samples were assessed for mortality and growth inhibition in comparison to untreated samples 5 days after infestation.

[12] = system: Carpocapsa (Cydia) pomonella (Codling Moth); assay: Example B15: Activity against Carpocapsa (Cydia) pomonella (codling moth), larvicide, feeding/contact; conditions: 336 h, application rate of 12.5 ppm, L1 larvae on sprayed diet cubes, 14 days after infestation, read-out: effect in at least one of the two categories (mortality or growth inhibition)
Experimental: Example B15: Activity Against Carpocapsa (Cydia) pomonella (Codling Moth), Larvicide, Feeding/Contact
Diet cubes coated with paraffin were sprayed with diluted test solutions in an application chamber. After drying off the treated cubes (10 replicates) were infested with 1 L1 larvae. Samples were incubated at 26-27° C. and checked 14 days after infestation for mortality and growth inhibition.

Cn1c(-c2ncc(OC(C)(C)C#N)cc2S(=O)(=O)CC2CC2)nc2cc(C(F)(F)F)nnc21 [Compound P1, 2-[[5-(cyclopropylmethylsulfonyl)-6-[7-methyl-3-(trifluoromethyl)imidazo[4,5-c]pyridazin-6-yl]-3-pyridyl]oxy]-2-methyl-propanenitrile]
≥ 80%: mortality at 50 ppm [1] | mortality at 12.5 ppm [2] | percent control (mortality, anti-feedant effect or growth inhibition) at 200 ppm [3] | percent effect (mortality or growth inhibition) at 200 ppm [4] | percent effect (mortality or growth inhibition) at 200 ppm [5] | mortality at 200 ppm [6] | mortality at 200 ppm [7] | mortality at 200 ppm [8] | percent effect (mortality or growth inhibition) at 200 ppm [9]

CCS(=O)(=O)c1cc(OC(C)(C)C#N)cnc1-c1nc2cc(C(F)(F)F)nnc2n1C [Compound P2, 2-[[5-ethylsulfonyl-6-[7-methyl-3-(trifluoromethyl)imidazo[4,5-c]pyridazin-6-yl]-3-pyridyl]oxy]-2-methyl-propanenitrile]
≥ 80%: mortality at 24 ppm [10] | mortality at 50 ppm [1] | mortality at 12.5 ppm [2] | percent control (mortality, anti-feedant effect or growth inhibition) at 200 ppm [3] | percent effect (mortality or growth inhibition) at 200 ppm [4] | percent effect (mortality or growth inhibition) at 200 ppm [11] | mortality at 200 ppm [7] | mortality at 200 ppm [8] | percent effect (mortality or growth inhibition) at 200 ppm [9]

CCS(=O)(=O)c1cc(OC(C)(C)C#N)c(C)nc1-c1nc2cc(C(F)(F)F)cnc2n1C [Compound P4, 2-[[5-ethylsulfonyl-2-methyl-6-[3-methyl-6-(trifluoromethyl)imidazo[4,5-b]pyridin-2-yl]-3-pyridyl]oxy]-2-methyl-propanenitrile]
≥ 80%: percent effect (mortality or growth inhibition) at 12.5 ppm [12] | mortality at 12.5 ppm [2] | percent control (mortality, anti-feedant effect or growth inhibition) at 200 ppm [3] | percent effect (mortality or growth inhibition) at 200 ppm [4] | percent effect (mortality or growth inhibition) at 200 ppm [11] | mortality at 200 ppm [6] | mortality at 200 ppm [7] | mortality at 200 ppm [8] | percent effect (mortality or growth inhibition) at 200 ppm [9]

CCS(=O)(=O)c1cc(OC(C)(C)C#N)cnc1-c1nc2cc(C(F)(F)F)n(OC)c(=O)c2n1C [Compound P5, 2-[[5-ethylsulfonyl-6-[5-methoxy-3-methyl-4-oxo-6-(trifluoromethyl)imidazo[4,5-c]pyridin-2-yl]-3-pyridyl]oxy]-2-methyl-propanenitrile]
≥ 80%: mortality at 24 ppm [10] | percent effect (mortality or growth inhibition) at 12.5 ppm [12] | mortality at 12.5 ppm [2] | percent control (mortality, anti-feedant effect or growth inhibition) at 200 ppm [3] | percent effect (mortality or growth inhibition) at 200 ppm [4] | percent effect (mortality or growth inhibition) at 200 ppm [11] | mortality at 200 ppm [6] | mortality at 200 ppm [7] | mortality at 200 ppm [8] | percent effect (mortality or growth inhibition) at 200 ppm [9]

CCS(=O)(=O)c1cc(OC(C)(C)C#N)c(C)nc1-c1nc2cc(C(F)(F)F)nnc2n1C [Compound P11, 2-[[5-ethylsulfonyl-2-methyl-6-[7-methyl-3-(trifluoromethyl)imidazo[4,5-c]pyridazin-6-yl]-3-pyridyl]oxy]-2-methyl-propanenitrile]
≥ 80%: mortality at 24 ppm [10] | percent effect (mortality or growth inhibition) at 12.5 ppm [12] | mortality at 50 ppm [1] | mortality at 12.5 ppm [2] | percent control (mortality, anti-feedant effect or growth inhibition) at 200 ppm [3] | percent effect (mortality or growth inhibition) at 200 ppm [4] | percent effect (mortality or growth inhibition) at 200 ppm [11] | mortality at 200 ppm [7] | mortality at 200 ppm [8] | percent effect (mortality or growth inhibition) at 200 ppm [9]

CCS(=O)(=O)c1cc(OC(C)(C)C#N)cnc1-c1nc2cc3c(cc2n1C)OC(F)(F)O3 [Compound P15, 2-[[6-(2,2-difluoro-7-methyl-[1,3]dioxolo[4,5-f]benzimidazol-6-yl)-5-ethylsulfonyl-3-pyridyl]oxy]-2-methyl-propanenitrile]
≥ 80%: percent effect (mortality or growth inhibition) at 12.5 ppm [12] | percent control (mortality, anti-feedant effect or growth inhibition) at 200 ppm [3] | percent effect (mortality or growth inhibition) at 200 ppm [4] | percent effect (mortality or growth inhibition) at 200 ppm [5] | mortality at 200 ppm [7] | mortality at 200 ppm [8] | percent effect (mortality or growth inhibition) at 200 ppm [9]

CCS(=O)(=O)c1cc(OC(C)(C)C#N)cnc1-c1nc2cc3c(cc2o1)OC(F)(F)O3 [Compound P16, 2-[[6-(2,2-difluoro-[1,3]dioxolo[4,5-f][1,3]benzoxazol-6-yl)-5-ethylsulfonyl-3-pyridyl]oxy]-2-methyl-propanenitrile]
≥ 80%: percent effect (mortality or growth inhibition) at 12.5 ppm [12] | percent control (mortality, anti-feedant effect or growth inhibition) at 200 ppm [3] | percent effect (mortality or growth inhibition) at 200 ppm [4] | percent effect (mortality or growth inhibition) at 200 ppm [5] | mortality at 200 ppm [7] | percent effect (mortality or growth inhibition) at 200 ppm [9]
